Laboratory results taken from patent publication US6815426B2, “Angiogenesis-inhibitory tripeptides, compositions and their methods of use” (E. I. du Pont de Nemours and Company, priority 2001, dated 2004).
Entries after “also recorded” stand apart in the source; their conditions may differ. Where a SMILES comes first, the peptide text is derived from it. Where no end group is shown, it is not given here. [ ]: non-standard residue; d: D form. ξ: configuration not given here. ξHyp = O=C(O)C1CC(O)CN1

Tests used:
[1] = system: Human umbilical vein endothelial cells (HUVEC); test: FGF2-stimulated endothelial cell tube formation on Matrigel matrix; format: cell-based; conditions: for Inhibition of FGF2-stimulated EC tube formation, in words: in vitro, qualitative ranking; for % inhibition cell tube formation (area) / % inhibition cell tube formation (length): peptide 0.015 μmol, FGF2-stimulated HUVEC; for Cell Tube Formation (area) / Cell Tube Formation (length): HUVEC on Matrigel, FGF2 100 ng/mL, peptide 0.015 μmol added with FGF2, overnight; for Cell Tube Formation (length): length/area
Method: Differentiation by endothelial cells was examined using a method developed by Grant et al. (In Vitro Cell Dev. Biol. 27A:327-336 (1991)). Matrigel® matrix, phenol-red free (commercially available from Becton Dickinson, Bedford, Mass.) was thawed overnight at 4° C. Using cold pipette tips, 3.0 mg/well of Matrigel® matrix was placed in a cold twenty-four-multiwell plate (Falcon). Matrigel® matrix was allowed to polymerize during incubation at 37° C. for 30 min. Human umbilical vein endothelial cells (HUVEC) were maintained at 37° C. with 5% CO2 and 95% humidity in endothelial cell growth medium with 2% fetal bovine serum (EGM). Tube assay was performed in endothelial cell basal medium (EBM) supplemented with 0.5% bovine serum albumin (BSA) and 1:100 diluted Insulin-Transferrin-Selenium-G supplement (I-T-Se, 100×). HUVEC were trypsinized and centrifuged and subsequently, washed twice in phosphate buffered saline (PBS). After counting, cell density was adjusted to 35,000 cells/mL. At final concentration of 35,000 cells/mL/well were treated with recombinant human fibroblast growth factor basic (FGF2) at 100 ng/mL and peptides (see below) dissolved in EBM medium at to a concentration of 0.015 μmol. Treated cells were incubated overnight at 37° C. with 5% CO2 and 95% humidity to allow cell attachment. Subsequently, the medium was aspirated and cells were fixed and stained using a modified HEMA-3 stain kit. Digital images of microtiter well sections were collected using a DKC5000 3-CCD color video camera system (Toshiba America, New York, N.Y.) and analyzed with the Image-Pro Plus software (Media Cybernetics, Silver Spring, Md.). The area and major axis length of stained cells having a tubular morphology on the Matrigel® matrix surface (Becton Dickinson, Bedford, Pa.) counted from 5 images/well.

[2] = system: FGF2-induced angiogenesis in the chorioallantoic membrane (CAM); test: FGF2-induced neovascularization on the chick chorioallantoic membrane (CAM), branch point count; format: in vivo; conditions: for Average # of Branch Points: FGF2 filter disk on CAM, peptide 16 μg topically, 48 h; for % Inhibition of branch point formation: 16 μg, FGF2-stimulated CAM
Method: In vivo neovascularization was examined by the method previously described by Auerbach et al. (J. Dev. Biol. 41:391-394 (1974)). Ten-day old embryos were purchased from Spafas, Inc. (Preston, Conn.) and were incubated at 37° C. with 55% relative humidity. In the dark with the help of a candling lamp a small hole was punctured in the shell concealing the air sac with a hypodermic needle. A second hole was punctured in the shell on the broadside of the egg directly over an […] portion of the embryonic membrane, as observed during candling. A false air sac was created beneath the second hole by the application of negative pressure to the first hole, which caused the chorioallantoic membrane (CAM) to separate from the shell. A window, approximately 1.0 cm^2, was cut in the shell over the dropped CAM with the use of a small crafts grinding wheel (Dremel, Division of Emerson Electric Company Racine, WI) which allowed direct access to the underlying CAM. Filter disks of #1 filter paper (Whatman International, United Kingdom) were soaked in 3 mg/mL cortisone acetate (Sigma, St. Louis, Mo.) in a solution of 95% ethanol and water and subsequently air dried under sterile conditions. FGF2 (Life Technologies, Gaithersburg, Md.) was used to grow vessels on the CAMs of 10-d old chick embryos. Sterile filter disks adsorbed with FGF2 dissolved in PBS at 1 μg/mL were placed on growing CAMs. At 24 h, test compounds or control vehicle was added directly to CAMs topically.
CAM tissue directly beneath FGF2-saturated filter disk was resected from embryos treated 48 h prior with compound or control. Tissues were washed three times with PBS. Sections were placed in a 35-mm petri dish (Nalge Nunc, Rochester, N.Y.) and examined under a SV6 stereomicroscope (Karl Zeiss, Thornwood, N.Y.) at 50× magnification. Digital images of CAM sections adjacent to filters were collected using a 3-CCD color video camera system (Toshiba America, New York, N.Y.) and analyzed with the Image-Pro Plus software (Media Cybernetics, Silver Spring, Md.) and can be seen in FIG. 2. Table 3 contains the number of vessel branch points contained in a circular region equal to the area of a filter disk counted for each section. Percent inhibition data is expressed as the quotient of the experimental value minus the negative control value divided by the difference between the positive control value and the negative control value.

[3] = system: TSU-Pr (human prostrate) tumor; conditions: 45 μg, after 7 d
Method: Ten million tumor cells were placed on the surface of each CAM (7-d old embryo) and were cultured for one week. The resulting tumors were excised and cut into 50 mg fragments. […] Each treatment group incorporated at least ten tumors per experiment. Representative tumors were photographed at 10× magnification. Tumors were then excised from the egg and tumor weights were determined for each tumor. Data is presented as mean tumor weight per treatment group (±standard error of the mean). Statistical analysis was performed using Student's t-test.

human melanoma cells [4] = conditions: cited from earlier work
human melanoma cells [5] = conditions: cited from earlier work; remark: listed apart in the source

Row | Compound | Inhibition of FGF2-stimulated EC tube formation, in words [1] | % Inhibition of Branch Points in FGF2-Induced CAM Assay ([2]; 1 μg/CAM) | % Inhibition of Branch Points in FGF2-Induced CAM Assay ([2]; 5 μg/CAM) | % Inhibition of Branch Points in FGF2-Induced CAM Assay ([2]; 15 μg/CAM) | % inhibition cell tube formation (area) [1] | % inhibition cell tube formation (length) [1] | further results
1 | CC(=O)N[C@@H](CO)C(=O)N[C@@H](CC(N)=O)C(=O)N1CC(O)CC1C(N)=O (stereo partly drawn) [SN-t4Hyp] (Ac-Ser-Asn-[ξHyp]-NH2) | most potent | 39% +/− 11 | 60% +/− 7 | 71% +/− 8 |  |  | 
2 | Ser-Gln-Ser [SQS] | most potent | 101% +/− 7 | 121% +/− 6 | 82% +/− 7 |  |  | 
3 | acetyl-Cys-Asn-Tyr-Tyr-Ser-Asn-Ser-Tyr-Ser-Phe-Trp-Leu (Ac-CNYYSNSYSFWL) [SEQ ID NO: 4, As defined in b173] |  |  |  |  | 71% +/− 6 | 54% +/− 3 | 
4 | CC(=O)N[C@@H](CO)C(=O)N[C@@H](CC(N)=O)C(=O)N[C@H](CO)C(N)=O [SNs] (Ac-Ser-Asn-[dS]-NH2) | most potent | 62% +/− 7 | 78% +/− 6 | 69% +/− 8 |  |  | 
5 | FGF2: recombinant human fibroblast growth factor basic, angiogenic stimulus [reference compound] |  |  |  |  |  |  | Cell Tube Formation (area) [1]: 2.2501 +/− 0.28 10^4 square microns; Cell Tube Formation (length) [1]: 79.8272 +/− 8.66 mm/mm^2; Average # of Branch Points [2]: 263.88
6 | CC(=O)NC(CO)C(=O)NC(CC(N)=O)C(=O)NC(CO)C(N)=O (stereo not drawn) [acetyl-SNS-carboxamide, acetyl-Ser-Asn-Ser-carboxamide] (Ac-Ser-Asn-Ser-NH2; configuration not given here) | very potent inhibitor; also recorded: more potent inhibitor |  |  |  | 97% +/− 8 | 84% +/− 9 | Cell Tube Formation (area) [1]: 1.1011 +/− 0.12 10^4 square microns; Cell Tube Formation (length) [1]: 47.5267 +/− 4.31 mm/mm^2; % ave inhibition of TSU-Pr tumor growth (weight) ([3]; injected into tumors): 111%; Tumors showing significant weight shrinkage ([3]; ten tumors injected): Six tumors out of the ten; % Inhibition of branch point formation [2]: 100.23%; % Inhibition of branch point formation ([2]; listed as acetyl-Ser-Asn-Ser-carboxamide): 100%; Average # of Branch Points [2]: 91.60
7 | CNYYSNSYSFWLASLNPER [SEQ ID NO:1, peptide of residues 185-203 of the NC1 domain of the α3-chain of collagen type IV] |  |  |  |  |  |  | Promotion of adhesion of human melanoma cells over controls (human melanoma cells [4]): 50-60%; Inhibition of proliferation of human melanoma cells (human melanoma cells [5]): 40%
8 | acetyl-Ser-Asn-Ser-Tyr-Ser-Phe-Trp-Leu (Ac-SNSYSFWL) [SEQ ID NO: 3, As defined in b173] |  |  |  |  | 75% +/− 7 | 65% +/− 3 | 
